Data as given in patent publication US20230233569A1 (Revolution Medicines, Inc., priority 2020, published 2023).
Where “and” joins values, the source holds several entries; their conditions need not be identical. Equal values may be shown once. Read-outs that look alike come from different tables or passages of the source.

Legend:
Assay in all cases: Disruption of BRAF RBD interaction with Ras (FRET / MOA assay, with Cyclophilin A)
Type in all cases: biochemical
NRAS G12C = NRAS G12C (Homo sapiens, UniProt P01111+P62937, G12C); settings: NRAS G12C; read-out: NRAS G12C FRET data IC50
Chain of NRAS G12C (P01111 whole entry G12C): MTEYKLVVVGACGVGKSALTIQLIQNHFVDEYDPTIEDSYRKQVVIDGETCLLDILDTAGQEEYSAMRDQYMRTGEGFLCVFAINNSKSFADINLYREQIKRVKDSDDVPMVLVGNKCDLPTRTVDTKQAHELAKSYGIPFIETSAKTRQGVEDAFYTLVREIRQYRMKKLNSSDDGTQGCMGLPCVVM
Chain of NRAS G12C (P62937 whole entry): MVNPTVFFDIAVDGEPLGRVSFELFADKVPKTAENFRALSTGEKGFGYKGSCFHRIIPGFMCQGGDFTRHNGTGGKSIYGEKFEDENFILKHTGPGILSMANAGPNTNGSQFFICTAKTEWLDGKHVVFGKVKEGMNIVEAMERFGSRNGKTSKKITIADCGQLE
Text: (§1) This protocol may also be executed substituting other Ras proteins or nucleotides.
(§2) The purpose of this biochemical assay was to measure the ability of test compounds to facilitate ternary complex formation between a nucleotide-loaded K-Ras isoform and Cyclophilin A; the resulting ternary complex disrupts binding to a BRAF^RBD construct, inhibiting K-Ras signaling through a RAF effector. Data is reported as IC50 values.
(§3) Compound was present in plate wells as a 10-point 3-fold dilution series starting at a final concentration of 30 μM. After incubation at 25° C. for 3 hours, a mixture of Anti-His Eu-W1024 and anti-GST allophycocyanin was then added to assay sample wells at final concentrations of 10 nM and 50 nM, respectively, and the reaction incubated for an additional 1.5 hours. […] Compounds that facilitate disruption of a K-Ras:RAF complex were identified as those eliciting a decrease in the TR-FRET ratio relative to DMSO control wells.
as §2, with “BRAF^RBDD” for “BRAF^RBD”

KRAS G12C = KRAS G12C (Homo sapiens, UniProt P01116+P62937, G12C)
Chain of KRAS G12C (P01116 1-169 isoform P01116-2 G12C): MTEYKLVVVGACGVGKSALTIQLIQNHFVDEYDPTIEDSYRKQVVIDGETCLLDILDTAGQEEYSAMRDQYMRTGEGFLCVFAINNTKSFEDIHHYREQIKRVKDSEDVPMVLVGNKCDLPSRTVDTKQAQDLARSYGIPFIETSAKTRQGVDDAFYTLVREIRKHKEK
Chain of KRAS G12C (P62937 whole entry): as the sequence (P62937 whole entry) above
Text: as §1, §2, §3
as §2, with “BRAF^RBDD” for “BRAF^RBD”

KRAS G12D = KRAS G12D (Homo sapiens, UniProt P01116+P62937, G12D)
Chain of KRAS G12D (P01116 1-169 isoform P01116-2 G12D limits assumed): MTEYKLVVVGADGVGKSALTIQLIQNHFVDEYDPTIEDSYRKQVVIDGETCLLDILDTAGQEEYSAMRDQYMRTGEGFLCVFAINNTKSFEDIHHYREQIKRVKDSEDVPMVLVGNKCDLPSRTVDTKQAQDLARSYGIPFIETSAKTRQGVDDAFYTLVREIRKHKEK
Chain of KRAS G12D (P62937 whole entry): as the sequence (P62937 whole entry) above
Text: as §1, §2, §3
as §2, with “BRAF^RBDD” for “BRAF^RBD”

KRAS G12S = KRAS G12S (Homo sapiens, UniProt P01116+P62937, G12S)
Chain of KRAS G12S (P01116 1-169 isoform P01116-2 G12S limits assumed): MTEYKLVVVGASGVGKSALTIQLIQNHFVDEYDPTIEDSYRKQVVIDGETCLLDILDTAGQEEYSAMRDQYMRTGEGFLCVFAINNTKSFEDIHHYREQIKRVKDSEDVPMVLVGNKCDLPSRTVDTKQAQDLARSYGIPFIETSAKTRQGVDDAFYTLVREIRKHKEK
Chain of KRAS G12S (P62937 whole entry): as the sequence (P62937 whole entry) above
Text: as §1, §2, §3
as §2, with “BRAF^RBDD” for “BRAF^RBD”

KRAS G12V = KRAS G12V (Homo sapiens, UniProt P01116+P62937, G12V)
Chain of KRAS G12V (P01116 1-169 isoform P01116-2 G12V limits assumed): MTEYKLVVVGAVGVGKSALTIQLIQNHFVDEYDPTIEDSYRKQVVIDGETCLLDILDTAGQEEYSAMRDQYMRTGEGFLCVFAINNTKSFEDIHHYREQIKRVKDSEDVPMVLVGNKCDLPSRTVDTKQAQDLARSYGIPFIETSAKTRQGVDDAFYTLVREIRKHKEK
Chain of KRAS G12V (P62937 whole entry): as the sequence (P62937 whole entry) above
Text: as §1, §2, §3
as §2, with “BRAF^RBDD” for “BRAF^RBD”

KRAS G13C = KRAS G13C (Homo sapiens, UniProt P01116+P62937, G13C)
Chain of KRAS G13C (P01116 1-169 isoform P01116-2 G13C): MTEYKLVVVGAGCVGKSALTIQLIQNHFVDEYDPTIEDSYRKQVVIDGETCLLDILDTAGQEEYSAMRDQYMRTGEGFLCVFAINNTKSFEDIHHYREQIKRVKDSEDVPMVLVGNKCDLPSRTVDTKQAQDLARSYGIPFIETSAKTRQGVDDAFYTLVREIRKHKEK
Chain of KRAS G13C (P62937 whole entry): as the sequence (P62937 whole entry) above
Text: as §1, §2, §3
as §2, with “BRAF^RBDD” for “BRAF^RBD”

KRAS WT = KRAS WT (Homo sapiens, UniProt P01116+P62937)
Chain of KRAS WT (P01116 1-169 isoform P01116-2 limits assumed): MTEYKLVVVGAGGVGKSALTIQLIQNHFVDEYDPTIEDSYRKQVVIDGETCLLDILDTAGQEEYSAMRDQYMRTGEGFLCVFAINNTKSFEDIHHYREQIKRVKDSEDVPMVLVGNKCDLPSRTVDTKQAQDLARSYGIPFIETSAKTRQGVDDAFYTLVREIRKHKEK
Chain of KRAS WT (P62937 whole entry): as the sequence (P62937 whole entry) above
Text: as §1, §2, §3
as §2, with “BRAF^RBDD” for “BRAF^RBD”

[1] = KRAS G12C, read-out: KRAS G12C FRET data IC50
[2] = read-out: KRAS G12D FRET data, IC50
[3] = read-out: KRAS G12S FRET data, IC50
[4] = KRAS G12V, read-out: KRAS G12V FRET data IC50
[5] = KRAS G13C, read-out: KRAS G13C FRET data IC50
[6] = KRAS WT, read-out: KRAS WT FRET data IC50

SMILES	IC50 (NRAS G12C) [µM]	IC50 (KRAS G12C; KRAS G12C FRET data IC50, KRAS G12C)	IC50 (KRAS G12D; KRAS G12D FRET data, IC50) [µM]	IC50 (KRAS G12S; KRAS G12S FRET data, IC50)	IC50 (KRAS G12V; KRAS G12V FRET data IC50, KRAS G12V)	IC50 (KRAS G13C; KRAS G13C FRET data IC50, KRAS G13C)	IC50 (KRAS WT; KRAS WT FRET data IC50, KRAS WT)	IC50 (KRAS G12C; [1]) [µM]	IC50 (KRAS G12D; [2]) [µM]	IC50 (KRAS G12S; [3]) [µM]	IC50 (KRAS G12V; [4]) [µM]	IC50 (KRAS G13C; [5]) [µM]	IC50 (KRAS WT; [6]) [µM]
C=CC(=O)N1CC[C@]2(COCCN2C(=O)N(C)[C@H](C(=O)N[C@H]2Cc3nc(cs3)-c3ccc4c(c3)c(c(-c3cccnc3[C@H](C)OC)n4CC)CC(C)(C)COC(=O)[C@@H]3CCCN(N3)C2=O)C(C)C)C1 (atropisomer, axis not shown) [Example A677]	0.1 to 1	–	–	–	–	–	–	–	–	–	–	–	–
C=CC(=O)N1CC[C@H](C(=O)N(C)[C@H](C(=O)N[C@H]2Cc3cc(OC(=O)NCC(=O)O)cc(c3)-c3ccc4c(c3)c(c(-c3ccccc3CCOC)n4CC)CC(C)(C)COC(=O)[C@@H]3CCCN(N3)C2=O)C(C)C)C1 [Example A036]	–	1 to 10 µM and > 10 µM	> 10	1 to 10 µM and > 10 µM	1 to 10 µM and > 10 µM	0.1 to 1 µM and > 10 µM	1 to 10 µM and > 10 µM	–	–	–	–	–	–
C=CC(=O)N1CC[C@H](C(=O)N(C)[C@H](C(=O)N[C@H]2Cc3cc(O)cc(c3)-c3ccc4c(c3)c(c(-c3ccc(C5CCN(C)CC5)cc3)n4CC)CC(C)(C)COC(=O)[C@@H]3CCCN(N3)C2=O)C(C)C)C1 [Example A039]	–	–	–	–	–	–	–	0.1 to 1	1 to 10	1 to 10	1 to 10	1 to 10	1 to 10
C=CC(=O)N1C[C@H](C)[C@H](C(=O)N(C)[C@H](C(=O)N[C@H]2Cc3cc(O)cc(c3)-c3ccc4c(c3)c(c(-c3ccccc3CCOC)n4CC)CC(C)(C)COC(=O)[C@@H]3CCCN(N3)C2=O)C(C)C)C1 [Example A041]	–	–	–	–	–	–	–	0.1 to 1	> 10	0.1 to 1	0.1 to 1	1 to 10	1 to 10
C=CC(=O)N1CC[C@H](C(=O)N(C)[C@H](C(=O)N[C@H]2Cc3cc(O)cc(c3)-c3ccc4c(c3)c(c(-c3cccnc3COCC)n4CC)CC(C)(C)COC(=O)[C@@H]3CCCN(N3)C2=O)C(C)C)C1 [Example A044]	–	–	–	–	–	–	–	0.01 to 0.1	1 to 10	0.1 to 1	0.1 to 1	0.1 to 1	1 to 10
CCn1c(-c2ccccc2CN(C)C)c2c3cc(ccc31)-c1cc(O)cc(c1)C[C@H](NC(=O)[C@H](C(C)C)N(C)C(=O)c1ccc(NC(=O)/C=C/CN(C)C)cn1)C(=O)N1CCC[C@H](N1)C(=O)OCC(C)(C)C2 [Example A046]	–	–	–	–	–	–	–	0.1 to 1	1 to 10	> 10	1 to 10	0.01 to 0.1	> 10
CCn1c(-c2ccccc2CN(C)C)c2c3cc(ccc31)-c1cc(O)cc(c1)C[C@H](NC(=O)[C@H](C(C)C)N(C)C(=O)[C@H]1CCN(C(=O)/C=C/CN(C)C)C1)C(=O)N1CCC[C@H](N1)C(=O)OCC(C)(C)C2 [Example A047]	–	–	–	–	–	–	–	0.01 to 0.1	1 to 10	0.1 to 1	0.1 to 1	0.1 to 1	1 to 10
C=CC(=O)N1CC[C@H](C(=O)N(C)[C@H](C(=O)N[C@H]2Cc3cc(O)cc(c3)-c3ccc4c(c3)c(c(-c3ccc(CN(C)C)cc3COC)n4CC)CC(C)(C)COC(=O)[C@@H]3CCCN(N3)C2=O)C(C)C)C1 [Example A051]	–	–	–	–	–	–	–	0.01 to 0.1	1 to 10	0.1 to 1	0.1 to 1	1 to 10	1 to 10
C=CC(=O)N1C[C@H](C)[C@H](C(=O)N(C)[C@H](C(=O)N[C@H]2Cc3cc(O)cc(c3)-c3ccc4c(c3)c(c(-c3ccccc3CN(C)C)n4CC)CC(C)(C)COC(=O)[C@@H]3CCCN(N3)C2=O)C(C)C)C1 [Example A052]	–	–	–	–	–	–	–	0.01 to 0.1	1 to 10	0.1 to 1	0.1 to 1	0.1 to 1	0.1 to 1
C=CC(=O)N1CC[C@H](C(=O)N(C)[C@H](C(=O)N[C@H]2Cc3cc(O)cc(c3)-c3ccc4c(c3)c(c(-c3cccnc3COC)n4CC)CC(C)(C)COC(=O)[C@@H]3CCCN(N3)C2=O)C2CCCC2)C1 [Example A055]	–	–	–	–	–	–	–	0.01 to 0.1	1 to 10	0.1 to 1	0.1 to 1	0.1 to 1	1 to 10
C=CC(=O)N1CC[C@H](C(=O)N(C)[C@H](C(=O)N[C@H]2Cc3cc(O)cc(c3)-c3ccc4c(c3)c(c(C3=C(COC)COCC3)n4CC)CC(C)(C)COC(=O)[C@@H]3CCCN(N3)C2=O)C(C)C)C1 [Example A058]	–	–	–	–	–	–	–	0.01 to 0.1	1 to 10	0.1 to 1	0.1 to 1	1 to 10	1 to 10
CCn1c(-c2cccnc2COC)c2c3cc(ccc31)-c1cc(O)cc(c1)C[C@H](NC(=O)[C@H](C(C)C)N(C)C(=O)[C@H]1CCN(C(=O)/C=C/CN3CCN(C)CC3)C1)C(=O)N1CCC[C@H](N1)C(=O)OCC(C)(C)C2 [Example A072]	–	–	–	–	–	–	–	0.01 to 0.1	1 to 10	0.1 to 1	0.1 to 1	0.1 to 1	0.1 to 1
C=CC(=O)N1CC[C@H](C(=O)N(C)[C@H](C(=O)N[C@H]2Cc3cc(O)cc(c3)-c3ccc4c(c3)c(c(-c3cncc(CN(C)C)c3)n4CC)CC(C)(C)COC(=O)[C@@H]3CCCN(N3)C2=O)C(C)C)C1 [Example A073]	–	–	–	–	–	–	–	0.1 to 1	> 10	1 to 10	1 to 10	1 to 10	1 to 10
C=CC(=O)N1CC[C@H](C(=O)N(C)[C@H](C(=O)N[C@H]2Cc3cc(O)cc(c3)-c3ccc4c(c3)c(c(-c3cncc(CCN(C)C)c3)n4CC)CC(C)(C)COC(=O)[C@@H]3CCCN(N3)C2=O)C(C)C)C1 [Example A081]	–	–	–	–	–	–	–	0.1 to 1	> 10	1 to 10	1 to 10	1 to 10	1 to 10
C=CC(=O)N1CC[C@H](C(=O)N(C)[C@H](C(=O)N[C@H]2Cc3cc(O)cc(c3)-c3ccc4c(c3)c(c(-c3ccncc3COC)n4CC)CC(C)(C)COC(=O)[C@@H]3CCCN(N3)C2=O)C(C)C)C1 [Example A091]	–	–	–	–	–	–	–	0.01 to 0.1	1 to 10	0.1 to 1	0.1 to 1	0.1 to 1	0.1 to 1
C=CC(=O)N1CC[C@H](C(=O)N(C)[C@H](C(=O)N[C@H]2Cc3cc(O)cc(c3)-c3ccc4c(c3)c(c(-c3cccnc3CN(C)C)n4CC)CC(C)(C)COC(=O)[C@@H]3CCCN(N3)C2=O)C(C)C)C1 [Example A092]	–	–	–	–	–	–	–	0.1 to 1	> 10	1 to 10	1 to 10	1 to 10	1 to 10
CCn1c(-c2cccnc2COC)c2c3cc(ccc31)-c1cc(O)cc(c1)C[C@H](NC(=O)[C@H](C(C)C)N(C)C(=O)C1CN(C(=O)C#CCN(C)C)C1)C(=O)N1CCC[C@H](N1)C(=O)OCC(C)(C)C2 [Example A097]	–	–	–	–	–	–	–	< 0.01	1 to 10	0.1 to 1	0.1 to 1	< 0.01	0.1 to 1
C=CC(=O)N1CC[C@H](C(=O)N(C)[C@H](C(=O)N[C@H]2Cc3cc(O)cc(c3)-c3ccc4c(c3)c(c(-c3cnn(C)c3)n4CC)CC(C)(C)COC(=O)[C@@H]3CCCN(N3)C2=O)C(C)C)C1 [Example A099]	–	–	–	–	–	–	–	0.1 to 1	> 10	1 to 10	1 to 10	1 to 10	> 10
C=CC(=O)N1CC[C@H](C(=O)N(C)[C@H](C(=O)N[C@H]2Cc3cc(O)cc(c3)-c3ccc4c(c3)c(c(-c3ccc(CN5CC[C@@H](O)C5)cc3)n4CC)CC(C)(C)COC(=O)[C@@H]3CCCN(N3)C2=O)C(C)C)C1 [Examples A001]	–	–	–	–	–	–	–	0.1 to 1	> 10	1 to 10	1 to 10	1 to 10	> 10
